Experiments:
[1] = test system: livers of male Wistar rats fed the CDAA diet; experiment: Example 2: oxidative hepatocyte injuries (8-OHdG, TBARS); assay type: in vivo, rat
Excerpt: (§1) Animal experiment. After acclimation, rats were divided equally into 22 groups consisting of 5 animals each. Animals in group 1 received the CDAA diet alone. […] Groups 5-7, 8-10, 11-13 and 14-16 received the CDAA diet containing the low, middle, and high doses of 4-OHPBN, 3-OHPBN, 2-OHPBN and 2-SPBN, respectively. Group 17 received the CSAA diet alone. […] All animals were sacrificed by exsanguination under light ether anesthesia 16 weeks after commencement, and the livers excised. Slices 5-mm-thick were taken from the left lateral, median and right lateral lobes of the livers, fixed in 10% neutrally-buffered formalin for 24 hours and then embedded in paraffin. Five serial 4-μm-thick sections were prepared from each fixed liver slice and used for histological and immunohistochemical assessment as described below. The remaining portions of the livers were immediately frozen under liquid nitrogen and stored at −80° C. until use.
Determination of oxidative hepatocyte injuries. Levels of oxidative damage to the hepatocytes were determined on frozen liver samples. Oxidative damage to nuclear DNA was assessed as previously described, using the amount of 8-hydroxydeoxyguanosine (8-OHdG) to 10^6 deoxyguanosine (dG) ratio as a parameter (Nakae et al. 1995). Oxidative injury to extra-nuclear components was assessed as described elsewhere, by determining picomole malondialdehyde equivalent (MDA eq.) levels of 2-thiobarbituric acid-reacting substances (TBARS) per milligram protein (Nakae et al. 1990).
(§2) Statistics. Inter-group differences in quantitative data for multiple groups were recognized to be significant, when p values smaller than 0.05 were obtained by the Dunnett multiple comparison test employed after one-way analysis of variance to determine the variation among the group means followed by the Bartlett's test to determine the homogeniety of variance.

[2] = test system: livers of male Wistar rats fed the CDAA diet; experiment: Example 2: histological liver injury (fibrosis, fatty liver); assay type: in vivo, rat; conditions: high dose 0.090%, CDAA diet 16 weeks
Excerpt: as §1
Histological and immunohistochemical assessments. Histological assessment was performed using sections routinely stained with hematoxylin/eosin and Masson's trichrome procedures. Gradation of fibrosis was quantitatively evaluated in groups 1, 4, 7, 10, 13, 16 and 17 by calculating the percent area occupied by collagen fiber stained blue by Masson's trichrome method using an IPAP image analyzing system (Sumika Technoservice Corp., City of Osaka, Osaka, Japan). GST-P-positive lesions were visualized immunohistochemically. Lesions consisting of more than 6 cells were quantified using the IPAP system as described elsewhere (Kishida et al. 2000). The amount of apoptosis and the cellular proliferative activity were determined in groups 1, 4, 7, 10, 13, 16 and 17, using the double staining techniques by combination of the GST-P immunohistochemistry as above with the in situ terminal deoxynucleotidyl transferase-mediated dUTP-biotin nick end-labeling method (Gold et al. 1994) and the enhanced polymer one-step staining method for proliferating cell nuclear antigen (Tsutsumi et al. 1995), respectively. Numbers of apoptotic and proliferating hepatocytes among the 1000-5000 hepatocytes in GST-P-positive lesions and 5000 hepatocytes in surrounding tissue were counted under light microscopy to obtain percentages that are hereafter referred as apoptotic and proliferative indices, respectively.
as §2

CC(C)(C)[N+]([O-])=Cc1ccccc1 [PBN, phenyl N-tert-butyl nitrone]
nuclear DNA 8-OHdG content increased by CDAA diet feeding ([1]; all doses, CDAA diet 16 weeks): significantly inhibited | TBARS level enhanced by CDAA feeding ([1]; high dose 0.090% only): significantly inhibited | grade of fibrosis versus group 1 [2]: significantly lower

Source: patent publication US6569902B2, “Nitrone inhibition of cancer development” (Oklahoma Medical Research Foundation, priority 2000, dated 2003)
